Measured values from publication PMC3747596 (PLoS ONE, 2013).
Where two headings read alike, the source gives them in different places.

Key:
[1] = biological target: T1, α2C-adrenoceptor (α2C-AR) (Homo sapiens, UniProt P18825); assay: Radioligand displacement, α2C
T1 sequence (P18825 1-462): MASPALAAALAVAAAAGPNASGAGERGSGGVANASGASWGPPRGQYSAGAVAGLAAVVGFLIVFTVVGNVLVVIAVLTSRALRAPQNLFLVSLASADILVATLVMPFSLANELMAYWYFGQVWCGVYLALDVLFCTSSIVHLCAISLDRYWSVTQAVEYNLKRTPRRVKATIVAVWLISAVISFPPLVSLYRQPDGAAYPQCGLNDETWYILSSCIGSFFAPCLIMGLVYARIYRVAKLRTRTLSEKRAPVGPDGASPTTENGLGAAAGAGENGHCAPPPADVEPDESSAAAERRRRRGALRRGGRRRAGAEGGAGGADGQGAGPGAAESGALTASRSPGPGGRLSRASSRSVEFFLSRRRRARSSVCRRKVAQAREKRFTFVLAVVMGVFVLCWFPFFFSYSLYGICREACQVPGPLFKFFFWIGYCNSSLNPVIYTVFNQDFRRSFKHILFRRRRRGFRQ

[2] = biological target: 5-HT2b (Homo sapiens, UniProt P41595); assay: Radioligand displacement, 5-HT2b; format: binding
5-HT2b, sequence (P41595 whole entry): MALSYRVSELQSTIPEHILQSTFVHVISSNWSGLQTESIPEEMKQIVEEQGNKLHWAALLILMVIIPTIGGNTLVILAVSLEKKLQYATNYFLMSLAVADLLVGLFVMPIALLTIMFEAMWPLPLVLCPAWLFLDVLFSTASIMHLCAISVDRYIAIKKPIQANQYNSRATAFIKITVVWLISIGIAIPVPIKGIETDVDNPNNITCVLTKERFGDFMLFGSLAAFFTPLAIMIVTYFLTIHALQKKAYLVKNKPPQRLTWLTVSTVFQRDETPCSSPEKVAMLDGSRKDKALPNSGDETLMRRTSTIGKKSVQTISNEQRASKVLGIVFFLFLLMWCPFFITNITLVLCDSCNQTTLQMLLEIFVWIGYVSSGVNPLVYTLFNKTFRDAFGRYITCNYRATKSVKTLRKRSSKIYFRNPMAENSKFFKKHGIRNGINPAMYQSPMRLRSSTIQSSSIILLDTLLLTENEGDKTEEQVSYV

[3] = biological target: GABAA (BZP); assay: Radioligand displacement, GABAA (BZP); format: binding; conditions: [3H] radioligand Flunitrazepam; Rat, Brain
[4] = biological target: T2, σ2 (Rattus norvegicus, UniProt Q5U3Y7); assay: Radioligand displacement, σ2; format: binding
T2 sequence (Q5U3Y7 1-176): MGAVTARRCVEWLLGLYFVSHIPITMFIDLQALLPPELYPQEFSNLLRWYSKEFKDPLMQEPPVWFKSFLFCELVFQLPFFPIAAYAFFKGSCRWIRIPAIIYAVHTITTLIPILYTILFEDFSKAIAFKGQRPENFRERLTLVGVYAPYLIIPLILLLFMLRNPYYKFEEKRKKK

[5] = biological target: T3, D4 (Homo sapiens, UniProt P21917); assay: Radioligand displacement, D4; format: binding
T3 sequence (P21917 1-419): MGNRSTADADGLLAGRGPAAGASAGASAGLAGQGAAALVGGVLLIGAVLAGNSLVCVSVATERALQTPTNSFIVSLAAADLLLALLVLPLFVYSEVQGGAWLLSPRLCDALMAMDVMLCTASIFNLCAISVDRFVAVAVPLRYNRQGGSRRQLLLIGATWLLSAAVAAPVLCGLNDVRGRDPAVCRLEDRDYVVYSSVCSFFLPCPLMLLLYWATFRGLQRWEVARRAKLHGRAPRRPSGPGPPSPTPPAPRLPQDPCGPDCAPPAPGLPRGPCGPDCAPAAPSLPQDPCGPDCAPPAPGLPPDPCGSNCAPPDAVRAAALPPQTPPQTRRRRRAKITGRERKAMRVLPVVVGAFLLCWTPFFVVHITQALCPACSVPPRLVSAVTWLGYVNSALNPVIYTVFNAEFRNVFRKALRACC

[6] = biological target: D5 (Homo sapiens, UniProt P21918); assay: Radioligand displacement, D5; format: binding
D5, sequence (P21918 whole entry): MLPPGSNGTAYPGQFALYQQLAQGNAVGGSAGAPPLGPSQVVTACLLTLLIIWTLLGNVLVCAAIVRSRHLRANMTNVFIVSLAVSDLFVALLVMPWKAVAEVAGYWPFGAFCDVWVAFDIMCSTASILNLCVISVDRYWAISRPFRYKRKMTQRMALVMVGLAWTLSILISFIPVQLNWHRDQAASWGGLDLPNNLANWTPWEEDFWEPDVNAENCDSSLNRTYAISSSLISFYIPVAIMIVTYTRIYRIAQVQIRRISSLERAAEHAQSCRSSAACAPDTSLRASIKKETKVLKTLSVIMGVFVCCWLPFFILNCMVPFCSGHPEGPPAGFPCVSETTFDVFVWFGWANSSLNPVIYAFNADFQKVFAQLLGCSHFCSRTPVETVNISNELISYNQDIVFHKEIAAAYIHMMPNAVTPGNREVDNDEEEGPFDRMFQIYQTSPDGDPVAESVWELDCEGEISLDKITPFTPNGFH

[7] = biological target: 5-HT2a (Homo sapiens, UniProt P28223); assay: Radioligand displacement, 5-HT2a; format: binding
5-HT2a, sequence (P28223 whole entry): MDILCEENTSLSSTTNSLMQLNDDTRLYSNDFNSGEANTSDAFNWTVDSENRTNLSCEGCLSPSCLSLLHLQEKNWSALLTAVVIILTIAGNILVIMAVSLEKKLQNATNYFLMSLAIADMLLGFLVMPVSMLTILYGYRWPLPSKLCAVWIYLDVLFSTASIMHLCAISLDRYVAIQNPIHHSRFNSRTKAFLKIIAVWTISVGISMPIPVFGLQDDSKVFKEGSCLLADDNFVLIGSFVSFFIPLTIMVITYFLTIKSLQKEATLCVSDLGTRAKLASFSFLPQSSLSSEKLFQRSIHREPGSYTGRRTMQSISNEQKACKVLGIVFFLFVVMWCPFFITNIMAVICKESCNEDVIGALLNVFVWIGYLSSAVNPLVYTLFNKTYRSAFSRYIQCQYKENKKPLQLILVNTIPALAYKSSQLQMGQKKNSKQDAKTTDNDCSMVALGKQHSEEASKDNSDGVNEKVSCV

[8] = biological target: 5-HT6 (Homo sapiens, UniProt P50406); assay: Radioligand displacement, 5-HT6; format: binding
5-HT6, sequence (P50406 whole entry): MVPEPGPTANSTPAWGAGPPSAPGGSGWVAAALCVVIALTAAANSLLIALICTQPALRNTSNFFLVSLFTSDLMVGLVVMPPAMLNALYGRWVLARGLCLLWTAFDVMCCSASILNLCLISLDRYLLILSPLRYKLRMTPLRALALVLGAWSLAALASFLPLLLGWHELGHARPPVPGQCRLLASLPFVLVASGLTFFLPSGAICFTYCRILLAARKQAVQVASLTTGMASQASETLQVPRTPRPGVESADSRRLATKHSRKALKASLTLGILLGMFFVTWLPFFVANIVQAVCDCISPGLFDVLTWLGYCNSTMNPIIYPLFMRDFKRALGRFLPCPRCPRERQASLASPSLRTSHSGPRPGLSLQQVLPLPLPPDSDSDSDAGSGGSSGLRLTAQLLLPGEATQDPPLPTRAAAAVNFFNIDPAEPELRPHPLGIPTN

[9] = biological target: 5-HT7 (Homo sapiens, UniProt P34969); assay: Radioligand displacement, 5-HT7; format: binding
5-HT7, sequence (P34969 whole entry): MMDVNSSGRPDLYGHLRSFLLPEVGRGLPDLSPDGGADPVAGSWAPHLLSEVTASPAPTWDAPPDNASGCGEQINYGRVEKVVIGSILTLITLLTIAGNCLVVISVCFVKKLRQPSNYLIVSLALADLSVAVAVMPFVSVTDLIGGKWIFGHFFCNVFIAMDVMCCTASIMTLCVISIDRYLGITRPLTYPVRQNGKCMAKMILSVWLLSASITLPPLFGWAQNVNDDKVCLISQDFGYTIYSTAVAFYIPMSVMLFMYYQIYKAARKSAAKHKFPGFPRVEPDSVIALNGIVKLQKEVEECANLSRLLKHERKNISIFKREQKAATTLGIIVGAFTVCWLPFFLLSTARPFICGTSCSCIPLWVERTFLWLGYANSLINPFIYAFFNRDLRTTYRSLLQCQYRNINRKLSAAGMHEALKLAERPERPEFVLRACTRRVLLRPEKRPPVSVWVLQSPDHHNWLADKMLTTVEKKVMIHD

[10] = biological target: 5-HT5a (Homo sapiens, UniProt P47898); assay: Radioligand displacement, 5-HT5a; format: binding
5-HT5a, sequence (P47898 whole entry): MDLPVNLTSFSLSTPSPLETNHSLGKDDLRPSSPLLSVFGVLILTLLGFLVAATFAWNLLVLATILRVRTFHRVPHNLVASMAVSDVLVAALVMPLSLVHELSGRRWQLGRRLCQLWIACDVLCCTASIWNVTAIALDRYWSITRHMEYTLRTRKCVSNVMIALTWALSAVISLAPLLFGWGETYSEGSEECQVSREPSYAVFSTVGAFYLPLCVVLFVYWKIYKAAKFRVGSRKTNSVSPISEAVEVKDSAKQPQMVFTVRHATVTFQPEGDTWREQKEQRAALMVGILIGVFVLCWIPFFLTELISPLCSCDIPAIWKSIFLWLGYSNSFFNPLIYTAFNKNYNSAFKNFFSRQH

[11] = biological target: σ1 (Rattus norvegicus, UniProt Q9R0C9); assay: Radioligand displacement, σ1; format: binding
σ1, sequence (Q9R0C9 whole entry): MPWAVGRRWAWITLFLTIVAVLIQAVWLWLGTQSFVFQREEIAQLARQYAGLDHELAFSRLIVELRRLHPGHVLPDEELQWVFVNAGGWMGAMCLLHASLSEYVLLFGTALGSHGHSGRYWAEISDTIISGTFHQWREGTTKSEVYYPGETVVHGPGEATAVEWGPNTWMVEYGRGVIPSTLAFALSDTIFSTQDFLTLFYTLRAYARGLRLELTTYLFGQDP

[12] = biological target: H4 (Homo sapiens, UniProt Q9H3N8); assay: Radioligand displacement, H4; format: binding
H4, sequence (Q9H3N8 whole entry): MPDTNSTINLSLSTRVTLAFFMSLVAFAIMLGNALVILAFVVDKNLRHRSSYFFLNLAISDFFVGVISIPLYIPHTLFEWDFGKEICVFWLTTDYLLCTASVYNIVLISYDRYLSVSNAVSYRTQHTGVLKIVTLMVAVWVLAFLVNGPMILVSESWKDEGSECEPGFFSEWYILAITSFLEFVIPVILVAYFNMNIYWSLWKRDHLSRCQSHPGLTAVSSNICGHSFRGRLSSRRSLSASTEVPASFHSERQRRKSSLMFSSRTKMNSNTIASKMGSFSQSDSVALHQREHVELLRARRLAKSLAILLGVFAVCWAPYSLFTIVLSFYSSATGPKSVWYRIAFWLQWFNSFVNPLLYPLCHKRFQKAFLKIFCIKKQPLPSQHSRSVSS

[13] = cited from earlier work
[14] = biological target: M4 (Homo sapiens, UniProt P08173); assay: Radioligand displacement, M4; format: binding
M4, sequence (P08173 whole entry): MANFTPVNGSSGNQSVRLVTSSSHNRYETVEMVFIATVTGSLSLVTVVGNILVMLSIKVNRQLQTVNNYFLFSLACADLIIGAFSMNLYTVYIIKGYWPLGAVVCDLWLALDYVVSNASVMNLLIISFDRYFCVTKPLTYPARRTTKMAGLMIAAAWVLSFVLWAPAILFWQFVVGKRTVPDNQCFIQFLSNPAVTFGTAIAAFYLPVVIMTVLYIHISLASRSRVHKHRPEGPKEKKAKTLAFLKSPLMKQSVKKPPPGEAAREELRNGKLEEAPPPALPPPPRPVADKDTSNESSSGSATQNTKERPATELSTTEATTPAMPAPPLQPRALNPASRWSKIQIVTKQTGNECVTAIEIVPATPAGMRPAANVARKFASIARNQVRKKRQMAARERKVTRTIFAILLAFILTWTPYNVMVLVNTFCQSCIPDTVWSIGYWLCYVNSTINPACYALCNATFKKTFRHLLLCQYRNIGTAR

[15] = biological target: β3 (Homo sapiens, UniProt P13945); assay: Radioligand displacement, β3; format: binding
β3, sequence (P13945 whole entry): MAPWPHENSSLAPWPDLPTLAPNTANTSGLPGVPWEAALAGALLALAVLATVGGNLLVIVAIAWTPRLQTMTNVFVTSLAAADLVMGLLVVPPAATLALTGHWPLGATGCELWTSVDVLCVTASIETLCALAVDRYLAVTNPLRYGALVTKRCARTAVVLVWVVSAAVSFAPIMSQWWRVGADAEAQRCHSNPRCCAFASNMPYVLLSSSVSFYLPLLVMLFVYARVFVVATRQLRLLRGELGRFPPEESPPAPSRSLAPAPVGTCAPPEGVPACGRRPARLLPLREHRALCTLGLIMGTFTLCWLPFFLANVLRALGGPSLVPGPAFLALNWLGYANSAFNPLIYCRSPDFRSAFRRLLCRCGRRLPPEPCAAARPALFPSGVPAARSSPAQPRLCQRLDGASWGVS

[16] = biological target: T4, α1A-adrenoceptor (α1A-AR) (Homo sapiens, UniProt P35348); assay: Radioligand displacement, α1A; format: binding
T4 sequence (P35348 1-466): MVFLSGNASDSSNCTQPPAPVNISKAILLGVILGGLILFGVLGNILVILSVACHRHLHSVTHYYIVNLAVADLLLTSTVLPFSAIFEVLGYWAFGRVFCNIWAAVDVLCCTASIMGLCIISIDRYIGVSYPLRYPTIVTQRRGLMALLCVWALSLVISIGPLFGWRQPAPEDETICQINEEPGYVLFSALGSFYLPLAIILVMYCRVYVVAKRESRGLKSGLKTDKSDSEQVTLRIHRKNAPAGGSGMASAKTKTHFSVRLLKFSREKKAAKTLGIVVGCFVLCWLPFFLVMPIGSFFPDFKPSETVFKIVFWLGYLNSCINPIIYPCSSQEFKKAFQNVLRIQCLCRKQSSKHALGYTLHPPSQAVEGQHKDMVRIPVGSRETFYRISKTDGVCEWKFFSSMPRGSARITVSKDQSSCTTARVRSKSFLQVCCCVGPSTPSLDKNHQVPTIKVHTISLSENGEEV

[17] = biological target: D2 (Homo sapiens, UniProt P14416); assay: Radioligand displacement, D2; format: binding
D2, sequence (P14416 whole entry): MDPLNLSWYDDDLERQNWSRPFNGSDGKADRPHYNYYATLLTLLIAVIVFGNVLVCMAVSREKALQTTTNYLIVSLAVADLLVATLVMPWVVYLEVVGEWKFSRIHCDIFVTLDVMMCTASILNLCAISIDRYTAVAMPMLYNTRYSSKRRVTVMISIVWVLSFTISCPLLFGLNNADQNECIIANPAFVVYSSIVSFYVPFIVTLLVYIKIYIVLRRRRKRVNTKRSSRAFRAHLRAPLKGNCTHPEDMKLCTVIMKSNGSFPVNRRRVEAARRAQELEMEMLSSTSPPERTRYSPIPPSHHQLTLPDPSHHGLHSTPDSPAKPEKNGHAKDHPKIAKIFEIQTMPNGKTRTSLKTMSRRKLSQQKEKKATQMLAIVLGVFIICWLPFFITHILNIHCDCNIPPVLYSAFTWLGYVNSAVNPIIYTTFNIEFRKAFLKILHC

[18] = K i, α2C, radioligand displacement (Table 1)
[19] = Ki, [3H] radioligand Rauwolscine, Human, Cloned
[20] = K i, D5, radioligand displacement (Table 1)
[21] = Ki, [3H] radioligand SCH23390, Human, Cloned
[22] = Ki, [3H] radioligand Prazosin, Human, Cloned
[23] = [3H] radioligand LSD, Human, Cloned, read-out: Ki
[24] = [3H] radioligand N-Methylspiperone, Human, Cloned, read-out: Ki

## N=C(N)Nc1ccc2[nH]c3c(c2c1)C[C@@]1(O)[C@H]2Cc4ccc(O)c5c4[C@@]1(CCN2CC1CC1)[C@H]3O5 [GNTI, 5′-guanidinonaltrindole]
[1]; [18]
  Ki: 2.2 µM
[1]; [19]
  Ki: 2.23 µM
[1]; Ki, binding curve File S1, Alpha2C Receptor, [125I]Clonidine (0.12 nM), Alpha2 Binding Buffer
  Ki: 2.23 µM
[2]
  Ki: ≥ 10 µM
[3]
  Ki: ≥ 10 µM
[4]
  Ki: ≥ 10 µM
[5]
  Ki: ≥ 10 µM
[6]; [20]
  Ki: 8.2 µM
[6]; [21]
  Ki: 8.18 µM
[7]
  Ki: ≥ 10 µM
[8]
  Ki: ≥ 10 µM
[9]
  Ki: ≥ 10 µM
[10]
  Ki: ≥ 10 µM
[11]
  Ki: ≥ 10 µM
[12]
  Ki: ≥ 10 µM
[13]; after 39 mg/kg
  estimate of the unbound brain concentration: 5 nM
[13]; dose 10 mg/kg
  peak unbound concentration in plasma: 2 µM
[13]; dose 39 mg/kg
  peak unbound concentration in plasma: 8 µM
[13]; within 4 hours
  decline of plasma concentration: over 80%
[13]; within 24 hours
  decline of plasma concentration: over 98%
[14]
  Ki: ≥ 10 µM
[15]
  Ki: ≥ 10 µM
[16]; 10 µM GNTI
  modulation of the displacement of [125I]HEAT by noradrenaline: did not detectably modulate
[16]; [22]
  Ki: 9.5 µM
[16]; Ki, binding curve File S1, Alpha1A Receptor, [125I]HEAT (0.03 nM), for 14674 the curve marked old
  Ki: 9.47 µM
[17]
  Ki: ≥ 10 µM

## CC(C)[C@@H](CN1CC[C@@](C)(c2cccc(O)c2)[C@@H](C)C1)NC(=O)[C@H]1Cc2ccc(O)cc2CN1 [JDTic]
[1]
  Ki: ≥ 10 µM
[2]; [23]
  Ki: ≥ 10 µM
[3]
  Ki: ≥ 10 µM
[4]; [3H] radioligand DTG, Rat, PC12, read-out: Ki
  Ki: ≥ 10 µM
[5]; [24]
  Ki: ≥ 10 µM
[6]; [3H] radioligand SCH23390, Human, Cloned, read-out: Ki
  Ki: ≥ 10 µM
[7]; [3H] radioligand Ketanserin, Human, Cloned, read-out: Ki
  Ki: ≥ 10 µM
[8]; [23]
  Ki: ≥ 10 µM
[9]; [23]
  Ki: ≥ 10 µM
[10]; [23]
  Ki: ≥ 10 µM
[11]; [3H] radioligand Pentazocine(+), Rat, Brain, read-out: Ki
  Ki: 1.88 µM
[11]; binding curve File S1, Sigma-1 Receptor, [3H]Pentazocine (3.0 nM), Sigma Binding Buffer, read-out: Ki
  Ki: 1.88 µM
[11]; σ1, radioligand displacement (Table 1), read-out: K i
  Ki: 1.9 µM
[12]; [3H] radioligand Histamine, Human, Cloned, read-out: Ki
  Ki: ≥ 10 µM
[13]; dose 10 mg/kg
  peak unbound concentration in plasma: 0.1 µM
[13]; within 4 hours
  decline of plasma concentration: over 80%
[13]; within 24 hours
  decline of plasma concentration: over 98%
[14]; [3H] radioligand QNB, Human, Cloned, read-out: Ki
  Ki: ≥ 10 µM
[15]; [3H] radioligand CGP12177, Human, Cloned, read-out: Ki
  Ki: ≥ 10 µM
[16]; read-out: Ki
  Ki: ≥ 10 µM
[17]; [24]
  Ki: ≥ 10 µM

## Oc1ccc2c3c1O[C@H]1c4[nH]c5c(c4C[C@@]4(O)[C@@H](C2)N(CC2CC2)CC[C@]314)C[C@@]1(O)[C@H]2Cc3ccc(O)c4c3[C@@]1(CCN2CC1CC1)[C@H]5O4 [nor-BNI, Nor-binaltorphimine]
[1]; [18]
  Ki: 0.63 µM
[1]; [19]
  Ki: 0.626 µM
[2]
  Ki: ≥ 10 µM
[3]
  Ki: ≥ 10 µM
[4]
  Ki: ≥ 10 µM
[5]
  Ki: ≥ 10 µM
[6]; [20]
  Ki: 3.9 µM
[6]; [21]
  Ki: 3.92 µM
[6]; Ki, binding curve File S1, Dopamine5 Receptor, [3H]SCH23390 (1.2 nM), Dopamine Binding Buffer
  Ki: 3.92 µM
[7]
  Ki: ≥ 10 µM
[8]
  Ki: ≥ 10 µM
[9]
  Ki: ≥ 10 µM
[10]
  Ki: ≥ 10 µM
[11]
  Ki: ≥ 10 µM
[12]
  Ki: ≥ 10 µM
[13]; dose 10 mg/kg
  peak unbound concentration in plasma: 3 µM
[13]; within 4 hours
  decline of plasma concentration: over 80%
[13]; within 24 hours
  decline of plasma concentration: over 98%
[14]
  Ki: ≥ 10 µM
[15]
  Ki: ≥ 10 µM
[16]; [22]
  Ki: ≥ 10 µM
[17]
  Ki: ≥ 10 µM
